Assay results reported in the NIST ThermoML archive (doi:10.1016/j.jct.2015.03.004).

Experiments:
[1] = 101.33 kPa, Liquid; for speed of sound: Sing-around technique in a fixed-path interferometer; for mass density: Vibrating tube method
[2] = refractive index (Na D-line) (dimensionless); details: 298.15 K; 101.33 kPa; Liquid; Standard Abbe refractometry
[3] = refractive index (Na D-line) (dimensionless); mn = molality of the nth substance listed, in mol/kg; details: 298.15 K, 101.33 kPa, Liquid, Standard Abbe refractometry
[4] = mn = molality of the nth substance listed, in mol/kg; details: 298.15 K, 101.33 kPa, Liquid; for speed of sound: Sing-around technique in a fixed-path interferometer; for mass density: Vibrating tube method

CCOS(=O)(=O)[O-].CCn1cc[n+](C)c1 [1-ethyl-3-methylimidazolium ethyl sulfate]
[1], 298.15 K
Details | mass density [kg/m3] | speed of sound [m/s]
– | 1237.72 | 1680.2

Details | refractive index
[2] | 1.4784

CCOS(=O)(=O)[O-].CCn1cc[n+](C)c1 [1-ethyl-3-methylimidazolium ethyl sulfate] + C1CCCCC1
m1 = 0.0999
Details | mass density [kg/m3] | refractive index | speed of sound [m/s]
[3] | – | 1.4237 | –
[4] | 773.884 | – | 1254.3

CCCCCCn1cc[n+](C)c1.[Br-] [3-hexyl-1-methyl-1H-imidazolium bromide]
[1], 298.15 K
Details | mass density [kg/m3] | speed of sound [m/s]
– | 1223.81 | 1587.5

Details | refractive index
[2] | 1.5308

CCCCCCn1cc[n+](C)c1.[Br-] [3-hexyl-1-methyl-1H-imidazolium bromide] + C1CCCCC1
m1 = 0.0999
Details | mass density [kg/m3] | refractive index | speed of sound [m/s]
[3] | – | 1.4236 | –
[4] | 773.932 | – | 1254.3

CCCCCCn1cc[n+](C)c1.[Br-] [3-hexyl-1-methyl-1H-imidazolium bromide] + CCCCCC
m1 = 0.1
Details | mass density [kg/m3] | refractive index | speed of sound [m/s]
[3] | – | 1.3737 | –
[4] | 655.221 | – | 1077.4

C1CCCCC1 [cyclohexane]
[1], 298.15 K
Details | mass density [kg/m3] | speed of sound [m/s]
– | 773.87 | 1253.7

Details | refractive index
[2] | 1.4235

C1CCCCC1 [cyclohexane] + c1ccsc1
m2 = 0
Details | mass density [kg/m3] | refractive index | speed of sound [m/s]
[3] | – | 1.4235 | –
[4] | 773.87 | – | 1253.7

CCCCCC [hexane]
[1], 298.15 K
Details | mass density [kg/m3] | speed of sound [m/s]
– | 655.175 | 1077.2

Details | refractive index
[2] | 1.3722

CCCCCC [hexane] + c1ccsc1
m2 = 0
Details | mass density [kg/m3] | refractive index | speed of sound [m/s]
[3] | – | 1.3722 | –
[4] | 655.175 | – | 1077.2

c1ccsc1 [thiophene]
[1]
Details | mass density [kg/m3] | speed of sound [m/s]
298.15 K | 1058.56 | 1259
303.15 K | – | 1258.7

Details | refractive index
[2] | 1.5252

c1ccsc1 [thiophene] + C1CCCCC1
Details | mass density, [4] [kg/m3] | refractive index, [3] | speed of sound, [4] [m/s]
m1 = 0.0404 | 774.512 | 1.424 | 1253.4
m1 = 0.0503 | 774.668 | 1.4241 | 1253.4
m1 = 0.0602 | 774.824 | 1.4242 | 1253.3
m1 = 0.0703 | 774.983 | 1.4243 | 1253.2
m1 = 0.0803 | 775.14 | 1.4244 | 1253.2
m1 = 0.0902 | 775.295 | 1.4245 | 1253.1
m1 = 0.1003 | 775.452 | 1.4246 | 1253
m1 = 0.1103 | 775.608 | 1.4247 | 1252.9
m1 = 0.1203 | 775.764 | 1.4248 | 1252.9
m1 = 0.1303 | 775.917 | 1.4249 | 1252.8
m1 = 0.1402 | 776.075 | 1.425 | 1252.7
m1 = 0.1503 | 776.227 | 1.4251 | 1252.6
m1 = 0.1603 | 776.38 | 1.4252 | 1252.6
m1 = 0.1702 | 776.53 | 1.4253 | 1252.5
m1 = 0.1802 | 776.684 | 1.4254 | 1252.4

c1ccsc1 [thiophene] + CCCCCC
Details | mass density, [4] [kg/m3] | refractive index, [3] | speed of sound, [4] [m/s]
m1 = 0.0303 | 655.82 | 1.3725 | 1077.3
m1 = 0.0354 | 655.927 | 1.3726 | 1077.3
m1 = 0.0403 | 656.03 | 1.3727 | 1077.3
m1 = 0.0453 | 656.133 | 1.3728 | 1077.3
m1 = 0.0504 | 656.239 | 1.3729 | 1077.4
m1 = 0.0554 | 656.34 | 1.373 | 1077.4
m1 = 0.0603 | 656.441 | 1.3731 | 1077.4
m1 = 0.0654 | 656.545 | 1.3732 | 1077.4
m1 = 0.0704 | 656.646 | 1.3733 | 1077.5
m1 = 0.0753 | 656.745 | 1.3734 | 1077.5
m1 = 0.0804 | 656.847 | 1.3735 | 1077.5
m1 = 0.0852 | 656.945 | 1.3736 | 1077.6
m1 = 0.0903 | 657.046 | 1.3737 | 1077.6
m1 = 0.0954 | 657.146 | 1.3738 | 1077.6
m1 = 0.1004 | 657.243 | 1.3739 | 1077.7
m1 = 0.1053 | 657.342 | 1.374 | 1077.7
m1 = 0.1104 | 657.441 | 1.3741 | 1077.8
